Results from patent US11504349B2, “Composition for preventing or treating TNF-related diseases, containing novel derivative as active ingredient, and method for inhibiting TNF activity by using same” (ILAB, priority 2017, dated 2022).

What was measured:
TNF = TNF (Homo sapiens, UniProt P01375); test: TNF-neutralization bioassay: TNF-induced cell death of LM cells (MTT); assay type: cell-based; details: for inhibition at 50 µM: compound 50 μM, TNF 20 ng/ml, actinomycin D, LM cells, 24 hours; for IC50: inhibition of TNF-induced LM cell death
TNF, sequence (P01375 77-233 limits assumed): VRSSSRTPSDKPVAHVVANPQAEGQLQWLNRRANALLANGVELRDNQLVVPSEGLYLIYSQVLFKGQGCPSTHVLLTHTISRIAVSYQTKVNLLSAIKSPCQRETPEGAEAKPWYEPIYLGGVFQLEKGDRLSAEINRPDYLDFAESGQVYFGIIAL
Protocol: (§1) First, the addition of recombinant TNF to mouse fibroblast LM cells induces cell death, and thus, by using the same, the TNF-neutralization bioassay was constructed. In other words, LM cells were pretreated with TNF (20 ng/ml) and the compounds synthesized in the above examples at various concentrations (5×10^4 cells/well), and a sensitizer actinomycin D ([…]) was added, and cultured in a CO2 incubator for 24 hours, and then the MTT assay was carried out. At this time, 10 μl of MTT (5 mg/ml stock) was added, reacted for 4 hours, and then dissolved in DMSO to measure the absorbance at 570 nm. First, the TNF cell death inhibition/neutralization action of TNF-target expected compounds at single concentration (50 or 10 μM) was measured. Second, IC50 values were determined by treating with the compounds having an excellent effect at different concentrations. The % inhibition of TNF was calculated using the following formula: % inhibition of TNF=(OD value of a group treated with TNF and compound−OD value of TNF treated group/(OD value of TNF untreated group−OD value of TNF treated group)×100.
(§2) IC50 values were statistically analyzed using Prism 6 (GraphPad) (IC50: 50% inhibitory concentration, CC50: 50% cytotoxic concentration).

[1] = Cytotoxicity (CC50) in LM cells, MTT assay; assay type: cell-based; details: mouse, LM cells (mouse fibroblasts); 50% cytotoxic concentration
Protocol: as §1, §2

| Structure (SMILES) | melting point [°C] | inhibition at 50 µM (TNF) [%] | IC50 (TNF) [µM] | CC50 at 24 h [1] [µM] |
| --- | --- | --- | --- | --- |
| O=C(O)c1c(-c2cc(F)cc(F)c2)oc2ccccc2c1=O [Example 17, 2-(3,5-difluorophenyl)-3-carboxy-(4H)-4-benzopyranone] | 208 to 209 | 71 | 2.5 | > 50 |
| O=C(O)c1c(-c2ccco2)oc2ccc(Cl)cc2c1=O [Example 23, 2-(2-furanyl)-3-carboxy-6-chloro-(4H)-4-benzopyranone] | 196 to 198 | 70.1 | 2.7 | > 50 |
| O=C(O)c1c(-c2ccc(Cl)cc2)oc2ccc(Cl)cc2c1=O [Example 71, 2-(4-chlorophenyl)-3-carboxy-6-chloro-(4H)-4-benzopyranone] | 227 to 228 | 97.9 | 3.3 | 36 |
| Cc1ccc2c(=O)c(C(=O)O)c(-c3cccs3)oc2c1 [Example 32, 2-(2-thiophenyl)-3-carboxy-7-methyl-(4H)-4-benzopyranone] | 202 to 203 | 23.6 |  |  |
| COc1ccc2oc(-c3cccc(C)c3)c(C(=O)O)c(=O)c2c1 [Example 7, 2-(3-methylphenyl)-3-carboxy-6-methoxy-(4H)-4-benzopyranone] | 198 to 199 | 47 |  |  |
| Cc1ccc2c(=O)c(C(=O)O)c(-c3cc(F)cc(F)c3)oc2c1 [Example 48, 2-(3,5-difluorophenyl)-3-carboxy-7-methyl-(4H)-4-benzopyranone] | 220 to 222 | 29 |  |  |
| Cc1ccc2oc(-c3ccco3)c(C(=O)O)c(=O)c2c1 [Example 22, 2-(2-furanyl)-3-carboxy-6-methyl-(4H)-4-benzopyranone] | 195 to 197 | 50.4 |  |  |
| O=C(O)c1c(-c2ccc(Cl)cc2)oc2ccccc2c1=O [Example 73, 2-(4-chlorophenyl)-3-carboxy-(4H)-4-benzopyranone] | 212 to 213 | 42 |  |  |
| COc1ccc(-c2oc3cc(C)ccc3c(=O)c2C(=O)O)cc1OC [Example 38, 2-(3,4-dimethoxyphenyl)-3-carboxy-7-methyl-(4H)-4-benzopyranone] | 200 to 201 | 30.9 |  |  |
| COc1ccc2oc(-c3cccs3)c(C(=O)O)c(=O)c2c1 [Example 14, 2-(2-thiophenyl)-3-carboxy-6-methoxy-(4H)-4-benzopyranone] | 172 to 174 | 38.8 |  |  |
| Cc1cccc(-c2oc3cc(C)ccc3c(=O)c2C(=O)O)c1 [Example 26, 2-(3-methylphenyl)-3-carboxy-7-methyl-(4H)-4-benzopyranone] | 152 to 155 | 45.1 |  |  |
| O=C(O)c1c(-c2cccc(F)c2)oc2ccccc2c1=O [Example 16, 2-(3-fluorophenyl)-3-carboxy-(4H)-4-benzopyranone] | 193 to 196 | 70.2 | 16.8 | > 50 |
| Cc1cccc2c(=O)c(C(=O)O)c(-c3ccco3)oc12 [Example 20, 2-(2-furanyl)-3-carboxy-8-methyl-(4H)-4-benzopyranone] | 227 to 228 | 59 |  |  |
| COc1ccc2c(=O)c(C(=O)O)c(-c3ccc(OC)c(OC)c3)oc2c1 [Example 9, 2-(3,4-dimethoxyphenyl)-3-carboxy-7-methoxy-(4H)-4-benzopyranone] | 208 to 210 | 49.2 |  |  |
| Cc1cccc(-c2oc3ccc(C)cc3c(=O)c2C(=O)O)c1 [Example 27, 2-(3-methylphenyl)-3-carboxy-6-methyl-(4H)-4-benzopyranone] | 192 to 195 | 65.2 |  |  |
| Cc1cccc(-c2oc3c(C)cccc3c(=O)c2C(=O)O)c1 [Example 25, 2-(3-methylphenyl)-3-carboxy-8-methyl-(4H)-4-benzopyranone] | 209 to 211 | 41 |  |  |
| Cc1ccc2c(=O)c(C(=O)O)c(-c3ccco3)oc2c1 [Example 21, 2-(2-furanyl)-3-carboxy-7-methyl-(4H)-4-benzopyranone] | 217 to 218 | 55.2 |  |  |
| COc1ccc2c(=O)c(C(=O)O)c(-c3ccco3)oc2c1 [Example 3, 2-(2-furanyl)-3-carboxy-7-methoxy-(4H)-4-benzopyranone] | 217 to 219 | 26.3 |  |  |
| O=C(O)c1c(-c2cccs2)oc2ccc(Cl)cc2c1=O [Example 35, 2-(2-thiophenyl)-3-carboxy-6-chloro-(4H)-4-benzopyranone] | 202 to 204 | 28.1 |  |  |

Continued, in another order:

| melting point [°C] | Structure (SMILES) | inhibition at 50 µM (TNF) [%] | IC50 (TNF) [µM] | CC50 at 24 h [1] [µM] |
| --- | --- | --- | --- | --- |
| 168 to 170 | O=C(O)c1c(-c2cc(F)ccc2F)oc2ccc(Cl)cc2c1=O [Example 62, 2-(2,5-difluorophenyl)-3-carboxy-6-chloro-(4H)-4-benzopyranone] | 100 | 3.8 | 17 |
| ≥ 220 | O=C(O)c1c(-c2cccc(F)c2F)oc2cc(Cl)ccc2c1=O [Example 55, 2-(2,3-difluorophenyl)-3-carboxy-7-chloro-(4H)-4-benzopyranone] | 100 | 33.6 | 25 |
| 222 to 223 | O=C(O)c1c(-c2cccc(F)c2)oc2ccc(Br)cc2c1=O [Example 46, 2-(3-fluorophenyl)-3-carboxy-6-bromo-(4H)-4-benzopyranone] | 100 | 28.9 | > 50 |
| ≥ 120 | O=C(O)c1c(-c2cccc(F)c2F)oc2ccc(Cl)cc2c1=O [Example 56, 2-(2,3-difluorophenyl)-3-carboxy-6-chloro-(4H)-4-benzopyranone] | 100 | 16.4 | 49 |
| 152 to 153 | O=C(O)c1c(-c2cc(F)ccc2F)oc2ccc(Br)cc2c1=O [Example 63, 2-(2,5-difluorophenyl)-3-carboxy-6-bromo-(4H)-4-benzopyranone] | 100 | 36.9 | 36 |
| 207 to 209 | O=C(O)c1c(-c2cc(F)cc(F)c2)oc2ccc(Cl)cc2c1=O [Example 50, 2-(3,5-difluorophenyl)-3-carboxy-6-chloro-(4H)-4-benzopyranone] | 100 | 5.1 | 36 |
| 203 to 204 | Cc1cccc2c(=O)c(C(=O)O)c(-c3ccc(F)c(F)c3)oc12 [Example 64, 2-(3,4-difluorophenyl)-3-carboxy-8-methyl-(4H)-4-benzopyranone] | 47.2 |  |  |
| 210 to 212 | O=C(O)c1c(-c2cccs2)oc2ccc(Br)cc2c1=O [Example 36, 2-(2-thiophenyl)-3-carboxy-6-bromo-(4H)-4-benzopyranone] | 27 |  |  |
| 202 to 204 | Cc1ccc2c(=O)c(C(=O)O)c(-c3ccc(F)c(F)c3)oc2c1 [Example 65, 2-(3,4-difluorophenyl)-3-carboxy-7-methyl-(4H)-4-benzopyranone] | 25.1 |  |  |
| 242 to 243 | COc1ccc(-c2oc3ccc(Br)cc3c(=O)c2C(=O)O)cc1OC [Example 40, 2-(3,4-dimethoxyphenyl)-3-carboxy-6-bromo-(4H)-4-benzopyranone] | 100 | 122 | > 50 |
| 212 to 227 | Cc1ccc2oc(-c3ccc(Cl)cc3)c(C(=O)O)c(=O)c2c1 [Example 70, 2-(4-chlorophenyl)-3-carboxy-6-methyl-(4H)-4-benzopyranone] | 28.9 |  |  |
| 211 to 213 | O=C(O)c1c(-c2ccc(Cl)cc2)oc2ccc(Br)cc2c1=O [Example 72, 2-(4-chlorophenyl)-3-carboxy-6-bromo-(4H)-4-benzopyranone] | 100 | 20.8 | > 50 |
| 170 to 172 | Cc1cccc2c(=O)c(C(=O)O)c(-c3cc(F)ccc3F)oc12 [Example 58, 2-(2,5-difluorophenyl)-3-carboxy-8-methyl-(4H)-4-benzopyranone] | 33.8 |  |  |
| 216 to 217 | O=C(O)c1c(-c2cccc(F)c2)oc2ccc(Cl)cc2c1=O [Example 45, 2-(3-fluorophenyl)-3-carboxy-6-chloro-(4H)-4-benzopyranone] | 88.4 | 18.5 | 42 |
| 155 to 156 | Cc1ccc2c(=O)c(C(=O)O)c(-c3cccc(F)c3F)oc2c1 [Example 53, 2-(2,3-difluorophenyl)-3-carboxy-7-methyl-(4H)-4-benzopyranone] | 22.8 |  |  |
| 218 to 220 | Cc1cccc(-c2oc3ccc(Cl)cc3c(=O)c2C(=O)O)c1 [Example 29, 2-(3-methylphenyl)-3-carboxy-6-chloro-(4H)-4-benzopyranone] | 45.7 |  |  |
